The assay addresses T1, BmfaldDH (Burkholderia multivorans, UniProt A0A0H3KP42).
T1 construct: gene fdhA2; pET28a, E. coli BL21(DE3), Ni-NTA purified (His-tagged)
T1 sequence (A0A0H3KP42 1-398): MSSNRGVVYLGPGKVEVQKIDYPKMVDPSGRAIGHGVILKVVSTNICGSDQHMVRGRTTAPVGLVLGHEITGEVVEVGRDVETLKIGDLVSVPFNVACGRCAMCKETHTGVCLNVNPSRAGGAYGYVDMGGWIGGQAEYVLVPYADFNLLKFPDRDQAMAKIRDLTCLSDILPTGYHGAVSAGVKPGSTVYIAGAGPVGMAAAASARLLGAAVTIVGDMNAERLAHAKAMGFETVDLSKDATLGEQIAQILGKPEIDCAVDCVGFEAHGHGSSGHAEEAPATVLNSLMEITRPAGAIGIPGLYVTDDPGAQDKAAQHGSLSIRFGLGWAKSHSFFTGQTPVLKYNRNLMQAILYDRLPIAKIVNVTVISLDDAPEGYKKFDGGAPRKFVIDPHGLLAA
In words: isothermal titration calorimetry. The format is binding. For orientation: Isothermal titration calorimetry measures the heat released or taken up as one component is titrated into another.

For the compound `NC(=O)C1=CN([C@@H]2O[C@H](COP(=O)(O)OP(=O)(O)OC[C@H]3O[C@@H](n4cnc5c(N)ncnc54)[C@H](O)[C@@H]3O)[C@@H](O)[C@H]2O)C=CC1` [NADH], the thermodynamic data result was “evaluating the interaction of BmfaldDH with formate and NADH”.

On to `O=CO` [formate], for which the thermodynamic data result was “isothermal titration calorimetry (ITC) to measure the thermodynamic data”.

(Values after PMC10963751, “Solar-driven sugar production directly from CO2 via a customizable electrocatalytic–biocatalytic flow system” (Nature Communications, 2024).)
